Experimental data published in patent US20240390349A1, “DOSING REGIMEN OF CAPSID INHIBITOR” (priority 2023, published 2024).
“And” between values parts separate entries of the source, which are not always exact repeats. Equal values may be shown once. “Also recorded” adds a separate entry of the source. Read-outs that look alike come from different tables or passages of the source.

Tests used:
HIV-1 = assay: Efficacy of oral bridging (HIV-1 RNA, CD4), CALIBRATE; assay type: in vivo, human
Excerpt: This Example describes results from a Phase 2 clinical study evaluating the safety and efficacy of LEN in combination with other antiretroviral (ARV) agents in ARV-naive people with HIV (PWH).
This Example describes a Phase 2, randomized, open-label, active-controlled, multicenter study. Participants in Treatment Groups 1 and 2 required oral bridging following a clinical hold imposed by the Food & Drug Administration on injectable LEN as the SC injection of LEN could not be administered within the protocol visit window. An Oral Bridging visit was completed every 10 to 12 weeks. Participants had to have met all of the inclusion criteria and none of the exclusion criteria to be included in the study.

[1] = Safety during oral bridging period, CAPELLA; assay type: in vivo
[2] = system: HIV-1 capsid LEN resistance mutations; conditions: for Fold decrease in LEN susceptibility: 1 participant
Excerpt: In HTE participants (Example 4), the resistance analysis population (RAP) during the oral bridging period included 9 participants (16%, 9/57) who met the criteria for resistance analysis, including 4 participants also present in the previous analysis. […];

[3] = Safety data from all completed and ongoing clinical studies of LEN; assay type: in vivo, human; conditions: oral doses up to 1800 mg
Experimental: Lenacapavir has been administered orally at doses up to 1800 mg. […] Oral LEN was administered without regard to food.

[4] = human, in vivo, sc
[5] = Safety during oral bridging period, CALIBRATE
Excerpt: An AE could, therefore, be any unfavorable and/or unintended sign, symptom, or disease temporally associated with the use of a study drug, whether or not considered related to the study drug.
Preexisting events that increased in severity or changed in nature during or as a consequence of participation in the clinical study were also considered AEs.

[6] = Safety during oral bridging, studies of Examples 4-5 together

CC(C)(C#Cc1ccc(-c2ccc(Cl)c3c(NS(C)(=O)=O)nn(CC(F)(F)F)c23)c([C@H](Cc2cc(F)cc(F)c2)NC(=O)Cn2nc(C(F)(F)F)c3c2C(F)(F)[C@@H]2C[C@H]32)n1)S(C)(=O)=O [LEN, N—((S)-1-(3-(4-chloro-3-(methylsulfonamido)-1-(2,2,2-trifluoroethyl)-1H-indazol-7-yl)-6-(3-methyl-3-(methylsulfonyl)but-1-yn-1-yl)pyridin-2-yl)-2-(3,5-difluorophenyl)ethyl)-2-((3bS,4aR)-5,5-difluoro-3-(trifluoromethyl)-3b,4,4a,5-tetrahydro-1H-cyclopropa [3,4]cyclopenta [1,2-c]pyrazol-1-yl) acetamide]
CD4 count and CD4% during oral bridging (in words) (HIV-1): generally stable or slightly increasing | Mean (SD) CD4 cell count at oral bridging baseline (HIV-1; LEN total group): 762 (285.2) /μL | Mean CD4% at oral bridging baseline (HIV-1; LEN total group): 34% | Proportion of participants with HIV-1 RNA<50 copies/mL (HIV-1; LEN total group, OB baseline): 99.2% | Proportion of participants with HIV-1 RNA<50 copies/mL (HIV-1; Missing=Excluded, OB Week 10): 77/77 (100) % | Proportion of participants with HIV-1 RNA<50 copies/mL (HIV-1; Missing=Excluded, OB Week 20): 58/58 (100) % | Proportion of participants with HIV-1 RNA<50 copies/mL (HIV-1; Missing=Excluded, OB Week 30): 5/5 (100) % | Proportion of participants with HIV-1 RNA<50 copies/mL (HIV-1; Missing=Excluded, all subsequent oral bridging time points, all treatment groups): 100% | Proportion of participants with HIV-1 RNA<50 copies/mL (HIV-1; Missing=Failure, Week 10, LEN total): 97.5% | Proportion of participants with HIV-1 RNA<50 copies/mL (HIV-1; Missing=Failure, Week 10, SC LEN total group): 97.5% | Proportion of participants with HIV-1 RNA<50 copies/mL (HIV-1; Missing=Failure, Week 10, oral LEN group): 97.4% | Proportion of participants with HIV-1 RNA<50 copies/mL (HIV-1; Missing=Failure, Week 20, LEN total): 100% | Proportion of participants with HIV-1 RNA<50 copies/mL (HIV-1; Missing=Failure, Week 20, SC LEN total group): 100% | Proportion of participants with HIV-1 RNA<50 copies/mL (HIV-1; Missing=Failure, Week 20, oral LEN group): 100% | Mean CD4% at oral bridging baseline (HIV-1; SC LEN total group): 35% | Proportion of participants with HIV-1 RNA<50 copies/mL (HIV-1; SC LEN total group (received OB), OB Baseline): 100% and 82/82 (100) % | Mean change from oral bridging baseline in CD4% (HIV-1; Week 10, LEN total group): 1% | Mean change from oral bridging baseline in CD4 cell count (HIV-1; Week 10, LEN total group): 35 µL⁻¹ | Mean change from oral bridging baseline in CD4% (HIV-1; Week 10, SC LEN total group): 0% | Mean change from oral bridging baseline in CD4 cell count (HIV-1; Week 10, SC LEN total group): 26 µL⁻¹ | Mean change from oral bridging baseline in CD4% (HIV-1; Week 10, oral LEN group): 1% | Mean change from oral bridging baseline in CD4 cell count (HIV-1; Week 10, oral LEN group): 55 µL⁻¹ | Mean change from oral bridging baseline in CD4% (HIV-1; Week 20, LEN total group): 0% | Mean change from oral bridging baseline in CD4 cell count (HIV-1; Week 20, LEN total group): 0 µL⁻¹ | Mean change from oral bridging baseline in CD4% (HIV-1; Week 20, SC LEN total group): 0% | Mean change from oral bridging baseline in CD4 cell count (HIV-1; Week 20, SC LEN total group): -31 µL⁻¹ | Mean change from oral bridging baseline in CD4% (HIV-1; Week 20, oral LEN group): 1% | Mean change from oral bridging baseline in CD4 cell count (HIV-1; Week 20, oral LEN group): 106 µL⁻¹ | Mean CD4% at oral bridging baseline (HIV-1; oral LEN group): 33% | Proportion of participants with HIV-1 RNA<50 copies/mL (HIV-1; oral LEN group, OB baseline): 97.4% | Virologic suppression / virologic failure during oral bridging (in words) (HIV-1; treatment-naive participants): remained virologically suppressed; also recorded: No treatment-naive participants from the study described in Example 4 experienced virologic failure | Discontinuation of study drug due to a TEAE [1]: No participant discontinued study drug due to a TEAE | Participants with Grade 2 or higher TEAEs [1]: 26.3% | Treatment-related asthenia [1]: 1.8% | Treatment-related diarrhea [1]: 3.5% | Treatment-related nausea [1]: 1.8% | Grade 5 TEAE of death ([1]; 1 participant, considered unrelated to study drug): 1.8% | Participants with treatment-related TEAEs ([1]; all Grade 1): 3.5% | AE of death leading to discontinuation of the study ([1]; one participant): 1.8% | Changes from baseline in hematology and clinical chemistry ([1]; oral bridging period): no clinically relevant changes from baseline in hematology and clinical chemistry parameters; also recorded: no clinically relevant changes from baseline in median values for hematology and clinical chemistry | Changes from baseline in vital signs ([1]; oral bridging period): no clinically relevant changes from baseline in vital signs | Overall safety and tolerability of oral LEN ([1]; oral bridging period): generally safe and well tolerated | Participants with Grade 1 TEAEs ([1]; oral bridging period): 22.8% | Participants with Grade 2 TEAEs ([1]; oral bridging period): 24.6% | TEAE COVID-19 ([1]; oral bridging period): 7.0% | TEAE cough ([1]; oral bridging period): 5.3% | TEAE diarrhea ([1]; oral bridging period): 5.3% | TEAE upper respiratory tract infection ([1]; oral bridging period): 5.3% | Participants who experienced TEAEs ([1]; oral bridging period, 57 participants): 49.1% | Fold decrease in LEN susceptibility ([2]; K70N+N74K): 289 fold | Mean fold decrease in LEN susceptibility ([2]; Q67H or Q67Q/H, 3 participants): 5.6 fold | Fold decrease in LEN susceptibility ([2]; Q67H+K70R+T107T/N): 393 fold | Overall safety and tolerability [3]: generally safe and well tolerated at the intended exposures | Lower 90% CI of LEN predose concentration [4]: 56.2 ng/mL | Mean LEN predose plasma concentration [4]: 74.4 ng/mL | Changes from oral bridging baseline in blood pressure, pulse, respiration rate, body temperature [5]: no clinically relevant changes from oral bridging baseline | Treatment-related diarrhea ([5]; 1 participant): 1.2% | Grade 3 or higher blood creatine phosphokinase increased ([5]; 2 participants, both in oral LEN group): 1.7% | Participants with Grade 3 events ([5]; LEN total group): 2.5% | Participants with Grade 3 or higher AEs ([5]; LEN total group): 5.0% | Participants with Grade 4 events ([5]; LEN total group): 2.5% | TEAE COVID-19 ([5]; LEN total group): 5.8% | TEAE influenza ([5]; LEN total group): 7.4% | TEAE nasopharyngitis ([5]; LEN total group): 5.0% | TEAE syphilis ([5]; LEN total group): 5.0% | Participants with any AE ([5]; LEN total group (121)): 62.8% | Participants with AEs related to study drug ([5]; LEN total group, all Grade 1): 3.3% | Participants with serious AEs ([5]; LEN total group, not related to study drug): 2.5% | AE oropharyngeal pain ([5]; SC LEN total group): 4.9% | Participants with AEs related to study drug ([5]; SC LEN total group): 3.7% | Participants with Grade 3 events ([5]; SC LEN total group): 1.2% | Participants with Grade 3 or higher AEs ([5]; SC LEN total group): 3.7% | Participants with Grade 4 events ([5]; SC LEN total group): 2.4% | Participants with any AE ([5]; SC LEN total group): 64.6% | Participants with serious AEs ([5]; SC LEN total group): 2.4% | TEAE COVID-19 ([5]; SC LEN total group): 4.9% | TEAE influenza ([5]; SC LEN total group): 8.5% | TEAE nasopharyngitis ([5]; SC LEN total group): 4.9% | TEAE syphilis ([5]; SC LEN total group): 4.9% | Changes from oral bridging baseline in hematology or clinical chemistry ([5]; any treatment group): no clinically relevant changes from oral bridging baseline in median values for hematology or clinical chemistry parameters | AE arthralgia ([5]; oral LEN group): 5.1% | AE blood creatine phosphokinase increase ([5]; oral LEN group): 5.1% | AE dyslipidemia ([5]; oral LEN group): 5.1% | AE oropharyngeal gonococcal infection ([5]; oral LEN group): 5.1% | Participants with AEs related to study drug ([5]; oral LEN group): 2.6% | Participants with Grade 3 events ([5]; oral LEN group): 5.1% | Participants with Grade 3 or higher AEs ([5]; oral LEN group): 7.7% | Participants with Grade 4 events ([5]; oral LEN group): 2.6% | Participants with any AE ([5]; oral LEN group): 59.0% | Participants with serious AEs ([5]; oral LEN group): 2.6% | TEAE COVID-19 ([5]; oral LEN group): 7.7% | TEAE influenza ([5]; oral LEN group): 5.1% | TEAE nasopharyngitis ([5]; oral LEN group): 5.1% | TEAE syphilis ([5]; oral LEN group): 5.1% | AEs leading to premature discontinuation of study drug or study ([5]; oral bridging period): no TEAEs which led to a premature discontinuation of study drug or from the study were reported; also recorded: no AEs that led to premature discontinuation of study drug or from the study were reported | Deaths ([5]; oral bridging period): No deaths were reported | Overall safety and tolerability of oral LEN ([5]; oral bridging period): generally safe and well tolerated | Overall safety and tolerability of oral bridging LEN 300 mg weekly ([6]; HTE and treatment-naive PWH): generally safe and well tolerated | Study drug-related SAEs ([6]; oral bridging period): no study drug-related SAEs
